The results in this text go back to paper PMC8145938, “Triphenilphosphonium Analogs of Chloramphenicol as Dual-Acting Antimicrobial and Antiproliferating Agents” (Antibiotics, 2021).

The subject of test [1] is E. coli S30 extract cell-free transcription-translation system. As to the kind of experiment: inhibition of firefly luciferase synthesis in cell-free bacterial translation system. It is filed as biochemical. The settings on record: 30 µM compound. On the procedure: (§1) The next step was to test the new CAM-Cn-TPP compounds for their ability to inhibit the synthesis of the firefly luciferase reporter in vitro in a cell-free transcription-translation system based on an E. coli S30 extract.
The inhibition of firefly luciferase synthesis in cell-free translation systems by CAM-Cn-TPP was tested with an E. coli S30 Extract System for Linear Templates (Promega, Madison, […], USA). The reactions were programmed with 100 ng of mRNA and were carried out in 5 μL aliquots at 37 °C for 30 min. The activity of in vitro synthesized luciferase was assessed using 5 μL of the substrate from the Steady-Glo Luciferase Assay System (Promega).

The next test deals with HEK293T. As to the kind of experiment: MTT assay growth inhibition. Format: cell-based. The settings on record: Homo sapiens, HEK-293T, 72 h, read-out: 50% growth inhibition concentration (GI50). The procedure: (§2) The cytotoxicity of the tested substances was tested using the MTT (3-(4,5-dimethylthiazol-2-yl)-2,5-diphenyltetrazolium bromide) assay, with some modifications, and 2500 cells per well for the MCF7, HEK293T, and A549 cell lines or 4000 cells per well for the VA-13 cell line were plated in 135 µL of DMEM-F12 media (Gibco, Waltham, MA, USA) in a 96-well plate and incubated in the 5% CO2 incubator for first 16 h, without treatment. Then, 15 µL of media-DMSO solutions of the tested substances was added to the cells (the final DMSO concentrations in the media were 1% or less) and treated cells for 72 h with 25 nM–50 µM (eight dilutions) of our substances (triplicate each), and serial DMSO dilutions and doxorubicin were used as controls. The MTT reagent (Paneco LLC, Moscow, Russia) was then added to cells to a final concentration of 0.5 g/L (10× stock solution in PBS was used) and incubated for 2.5 h at 37 °C in the incubator under an atmosphere of 5% CO2. The MTT solution was then discarded, and 140 µL of DMSO (PharmaMed LLC, Krasnodarsky Krai, Russia) was added. The plates were swayed on a shaker (60 rpm) to dissolve the formazan. The absorbance was measured using a microplate reader (VICTOR X5 Light Plate Reader, PerkinElmer, Waltham, MA, USA) at a wavelength of 565 nm (in order to measure formazan concentration). The results were used to construct a dose-response graph and to estimate the CC50 value.

Another test concerns MCF7. As to the kind of experiment: MTT assay growth inhibition. The settings on record: Homo sapiens, 72 h, read-out: 50% growth inhibition concentration (GI50). Format: cell-based. On the procedure:
as §2

The test system of a further test is VA13. The test can be described thus: MTT assay growth inhibition. Format: cell-based. The settings on record: VA-13, 72 h, read-out: 50% growth inhibition concentration (GI50). The procedure:
as §2

The test system of another test is Bacillus subtilis. As to the kind of experiment: MIC determination, broth microdilution. It is filed as cell-based. The text has this:
(§3) Standard laboratory strains of Bacillus subtilis subs. subtilis Cohn 1872, stains BR151, and 168, Staphylococcus aureus subsp. aureus Rosenbach 1884 strains JCM 2151 and entry MC#144 (from the Microorganisms Collection of the Moscow State University), Listeria monocytogenes Pirie 1940, Mycobacterium smegmatis Lehmann and Neumann 1899 (MC#377), and Escherichia coli Castellani and Chalmers 1919, strain JW5503 (with the deletion of tolC gene), which are resistant to the chloramphenicol strains, J53rif, C600rif/pIB55-1, C600rif/pIP162-1, and C600recA naI, were used.
(§4) The MICs for CAM-Cn-TPP and Cn-TPP were determined by Mueller-Hinton broth microdilution, as recommended by CLSI in the Methods for Dilution Antimicrobial Susceptibility Tests for Bacteria that Grow Aerobically, Approved Standard, 9th ed., CLSI document M07-A9, using in-house-prepared panels. The compounds were diluted in a 96-well microtiter plate to final concentrations ranging from 0.5 to 360 μM in a 250-µL aliquot of the bacterial suspension, followed by incubation at 37 °C or 30 °C for 18 h. […] The bacterial growth was observed visually alongside OD measurements. The experiments were carried out in triplicate.

For a further test, the system named is Mycobacterium smegmatis. As to the kind of experiment: MIC determination, broth microdilution. It is filed as cell-based. The settings on record: Mycolicibacterium smegmatis.
From the text: as §3, §4

The test system of a further test is Staphylococcus aureus. As to the kind of experiment: MIC determination, broth microdilution. It is filed as cell-based.
From the text: as §3
(§5) S. aureus was grown in Bacto Tryptic Soy Broth, L. monocytogenes in Brain Heart Infusion Broth, and E. coli in LB. Bacterial cells were grown at 30 °C or 37 °C in the appropriate medium at a 140 rpm shaking frequency.
as §4

The next test concerns Listeria monocytogenes. As to the kind of experiment: MIC determination, broth microdilution. Format: cell-based.
From the text: as §3, §5, §4

Another test deals with Escherichia coli J53rif. As to the kind of experiment: MIC determination, CHL resistant E. coli strains. Format: cell-based.
From the text: as §3, §4

The subject of test [2] is Escherichia coli C600rif/pIB55-1. As to the kind of experiment: MIC determination, CHL resistant E. coli strains. Format: cell-based.
From the text: as §3, §4

The test system of test [3] is Escherichia coli C600recA naI. The test can be described thus: MIC determination, CHL resistant E. coli strains. It is filed as cell-based. The settings on record: C600RECANAI.
From the text: as §3, §4

Test [4] relates to Escherichia coli C600rif/pIP162-1. The test can be described thus: MIC determination, CHL resistant E. coli strains. Format: cell-based.
From the text: as §3, §4

Another test concerns A549. As to the kind of experiment: MTT assay growth inhibition. Format: cell-based, human. The settings on record: for GI50: Homo sapiens, A549, MTT, 72 h, read-out: 50% growth inhibition concentration (GI50); for selectivity of action for A549 and noncancerous VA13 cell lines: A549 vs VA13. On the procedure: as §2
The test system of test [5] is Rabbit Reticulocyte Lysate. As to the kind of experiment: inhibition of eukaryotic in vitro translation (firefly luciferase). It is filed as biochemical. The settings on record: 30 µM compound. On the procedure:
as §1
The inhibition of eukaryotic translation was measured in Rabbit Reticulocyte Lysate (Promega) according to the manufacturer’s protocol. The reactions were programmed with 100 ng of Fluc mRNA and were carried out in 5 μL aliquots at 37 °C for 30 min. The activity of the in vitro synthesized luciferase was assessed using 5 μL of the substrate from the Steady-Glo Luciferase Assay System (Promega).

The mark [6] stands for this setting: Table 1, double-dilution method, read-out: MIC.

The structures appear in SMILES notation. ≈ marks a conversion by molar mass, not a printed value. Like-named read-outs stand apart in the source and are kept apart here. Some results are limits rather than exact numbers.

Regarding `O=C(N[C@H](CO)[C@H](O)c1ccc([N+](=O)[O-])cc1)C(Cl)Cl` [CHL, chloramphenicol], the “inhibition of bacterial translation (luciferase synthesis)” value (from here on “inhibition of bacterial translation”) in test [1] is reported as “inhibits bacterial translation”. The GI50 in the test on HEK293T is more than 50 µM; with MCF7, more than 50 µM; with VA13, more than 50 µM; in the test with A549, more than 50000 nM. In addition, the minimum inhibitory concentration (MIC) in the test on Bacillus subtilis (setting [6]) was 12 µM (≈ 3.88 µg/mL); with Mycobacterium smegmatis (setting [6]) it was 6 µM (≈ 1.94 µg/mL); in the test on Staphylococcus aureus (setting [6]), 60 µM (≈ 19.4 µg/mL); in the test with Listeria monocytogenes (setting [6]), 25 µM (≈ 8.08 µg/mL); with Escherichia coli J53rif, more than 396 µM; in test [2] it was more than 396 µM. Besides, the minimal inhibitory concentration (MIC) in test [3] and in test [4] was more than 396 µM throughout.
As for `O=C(CCCCCCCCCC[P+](c1ccccc1)(c1ccccc1)c1ccccc1)N[C@H](CO)[C@H](O)c1ccc([N+](=O)[O-])cc1` [CAM-C10-TPP, (N-{[(1R,2R)-1,3-dihydroxy-1-(4-nitrophenyl)propan-2-yl]amino}-11-oxoundecyl)(triphenyl)phosphonium bromide], the “inhibition of bacterial translation” value in test [1] is “inhibits bacterial translation”. For the same molecule, the GI50 is 0.62 ± 0.04 µM in the test on HEK293T, 1 ± 0.1 µM in the test with MCF7, 2.8 ± 0.5 µM in the test on VA13 and 700 ± 100 nM in the test on A549. The minimal inhibitory concentration (MIC) in the test with Bacillus subtilis stood at 2 µM; against Mycobacterium smegmatis, 2 µM; against Staphylococcus aureus, 5 µM; in the test with Listeria monocytogenes, 6 µM; with Escherichia coli J53rif it was 110 µM; in test [2] it was 90 µM. Also, the minimal inhibitory concentration (MIC) in test [3] was 107 µM; in test [4], more than 199 µM. Moreover, in test [5], the “effect on eukaryotic in vitro translation” value is on record as “had no effect on eukaryotic in vitro translation”. Moreover, the “selectivity of action for A549 and noncancerous VA13 cell lines” value in the test with A549 is reported as “approximately 4 times”.
On to `O=C(CCCCCCCCCC[P+](c1ccccc1)(c1ccccc1)c1ccccc1)NCCCC(=O)N[C@H](CO)[C@H](O)c1ccc([N+](=O)[O-])cc1` [CAM-C14-TPP, N-[(1R,2R)-1,3-dihydroxy-1-(4-nitrophenyl)propan-2-yl]-4-(triphenyl)phosphoniumundecanamidobutamide bromide], for which the “inhibition of bacterial translation” value in test [1] was “inhibits bacterial translation”. The GI50 in the test on HEK293T stood at 3.6 ± 0.5 µM; in the test on MCF7 it was 5.8 ± 0.8 µM; with VA13, 5.2 ± 0.9 µM; with A549, 2900 ± 400 nM. In addition, the MIC with Bacillus subtilis was determined as 12 µM; against Mycobacterium smegmatis, 8 µM; in the test on Staphylococcus aureus, 12 µM; in the test with Listeria monocytogenes, 17 µM. Also, the “effect on eukaryotic in vitro translation” value in test [5] is reported as “had no effect on eukaryotic in vitro translation”. In the test with A549, the “selectivity of action for A549 and noncancerous VA13 cell lines” value is approximately 2 times.
